Reference: patent US8318504B2, “MRP2 efflux pathway prognostic method” (priority 2009, dated 2012)

How the values were obtained:
OATP2B1 = biological target: T1, OATP2B1 (Homo sapiens, UniProt O94956); test: Uptake of CLF into CHO cells expressing OATP2B1; type: cell-based; settings: 1 μmol/L CLF, 1 or 5 minutes
T1 construct: expressed in transfected cells; host or cells: CHO cells (stably transfected; Treiber et al. 2007)
T1 sequence (O94956 1-709): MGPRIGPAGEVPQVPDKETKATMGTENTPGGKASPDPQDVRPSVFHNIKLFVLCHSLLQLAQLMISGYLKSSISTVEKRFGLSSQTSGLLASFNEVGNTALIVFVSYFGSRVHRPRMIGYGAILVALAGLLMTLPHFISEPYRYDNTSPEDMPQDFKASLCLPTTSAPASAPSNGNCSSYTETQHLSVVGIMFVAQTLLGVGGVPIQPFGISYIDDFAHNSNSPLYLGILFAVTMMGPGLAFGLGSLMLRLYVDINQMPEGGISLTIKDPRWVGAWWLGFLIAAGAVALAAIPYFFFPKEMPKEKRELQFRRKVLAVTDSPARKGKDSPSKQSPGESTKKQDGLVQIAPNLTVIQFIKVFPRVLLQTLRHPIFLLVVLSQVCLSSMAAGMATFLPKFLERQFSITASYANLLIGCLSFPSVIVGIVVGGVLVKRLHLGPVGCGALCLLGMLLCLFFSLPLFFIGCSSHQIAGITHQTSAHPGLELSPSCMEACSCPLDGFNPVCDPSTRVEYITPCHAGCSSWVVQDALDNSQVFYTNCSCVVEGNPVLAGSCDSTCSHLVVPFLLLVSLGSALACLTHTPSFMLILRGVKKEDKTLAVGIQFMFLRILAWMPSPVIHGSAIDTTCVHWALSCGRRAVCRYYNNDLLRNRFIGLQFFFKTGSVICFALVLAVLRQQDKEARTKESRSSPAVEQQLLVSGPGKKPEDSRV
Description: cDNA for human NTCP [Hagenbuch et al., J Clin Invest 1994 March; 93(3): 1326-1331] was cut with EcoRV and HindI and the coding region ligated into pcDNA5/FRT (Invitrogen, Life-Technologies, Carlsbad, Calif.). CHO FlpIn cells (Invitrogen, Life-Technologies) were transfected with the resulting construct using Lipofectamine® 2000 (Invitrogen, Life-Technologies). Stably transfected cells were selected with 550 μg Hygromycin-B in HAM-F12 medium (Gibco, Invitrogen, Life-Technologies). Transfected cells were cloned with the limiting dilution method. […] To further characterize the cloned cells, immunofluorescence localization of NTCP using a polyclonal antibody against NTCP [Kullak-Ublick G et al., Gastroenterology 1997 October; 113(4):1295-1305] was performed as described by Huber R D et al. [Am J Physiol Cell Physiol 2007 February; 292(2):[…]-[…]]. CHO cells expressing OATP1B1, OATP1B3 and OATP2B1 were described previously [Treiber et al., DMD 35:1400-1407, 2007]. […] After complete solubilization, 1.5 ml was used to measure fluorescence in a Perkin-Elmer LS-5 luminescence-spectrometer set at λexe 486 nm (slit 10 nm) and λem 520 nm (slit 5 nm). Protein was determined with the bicinchoninic acid method using a kit from Interchim (Montfuçon, France). […]

ABCC2 = biological target: T2, ABCC2 (Homo sapiens, UniProt Q92887); test: CLF inhibition of DNP-SG transport into ABCC2 containing Sf21 membrane vesicles; type: biochemical; settings: ATP-dependent transport, read-out: Half maximal inhibition of DNP-SG transport with CLF
T2 construct: made in house; host or cells: Sf21 insect cells, baculovirus; plasma membrane vesicles
T2 sequence (Q92887 whole entry): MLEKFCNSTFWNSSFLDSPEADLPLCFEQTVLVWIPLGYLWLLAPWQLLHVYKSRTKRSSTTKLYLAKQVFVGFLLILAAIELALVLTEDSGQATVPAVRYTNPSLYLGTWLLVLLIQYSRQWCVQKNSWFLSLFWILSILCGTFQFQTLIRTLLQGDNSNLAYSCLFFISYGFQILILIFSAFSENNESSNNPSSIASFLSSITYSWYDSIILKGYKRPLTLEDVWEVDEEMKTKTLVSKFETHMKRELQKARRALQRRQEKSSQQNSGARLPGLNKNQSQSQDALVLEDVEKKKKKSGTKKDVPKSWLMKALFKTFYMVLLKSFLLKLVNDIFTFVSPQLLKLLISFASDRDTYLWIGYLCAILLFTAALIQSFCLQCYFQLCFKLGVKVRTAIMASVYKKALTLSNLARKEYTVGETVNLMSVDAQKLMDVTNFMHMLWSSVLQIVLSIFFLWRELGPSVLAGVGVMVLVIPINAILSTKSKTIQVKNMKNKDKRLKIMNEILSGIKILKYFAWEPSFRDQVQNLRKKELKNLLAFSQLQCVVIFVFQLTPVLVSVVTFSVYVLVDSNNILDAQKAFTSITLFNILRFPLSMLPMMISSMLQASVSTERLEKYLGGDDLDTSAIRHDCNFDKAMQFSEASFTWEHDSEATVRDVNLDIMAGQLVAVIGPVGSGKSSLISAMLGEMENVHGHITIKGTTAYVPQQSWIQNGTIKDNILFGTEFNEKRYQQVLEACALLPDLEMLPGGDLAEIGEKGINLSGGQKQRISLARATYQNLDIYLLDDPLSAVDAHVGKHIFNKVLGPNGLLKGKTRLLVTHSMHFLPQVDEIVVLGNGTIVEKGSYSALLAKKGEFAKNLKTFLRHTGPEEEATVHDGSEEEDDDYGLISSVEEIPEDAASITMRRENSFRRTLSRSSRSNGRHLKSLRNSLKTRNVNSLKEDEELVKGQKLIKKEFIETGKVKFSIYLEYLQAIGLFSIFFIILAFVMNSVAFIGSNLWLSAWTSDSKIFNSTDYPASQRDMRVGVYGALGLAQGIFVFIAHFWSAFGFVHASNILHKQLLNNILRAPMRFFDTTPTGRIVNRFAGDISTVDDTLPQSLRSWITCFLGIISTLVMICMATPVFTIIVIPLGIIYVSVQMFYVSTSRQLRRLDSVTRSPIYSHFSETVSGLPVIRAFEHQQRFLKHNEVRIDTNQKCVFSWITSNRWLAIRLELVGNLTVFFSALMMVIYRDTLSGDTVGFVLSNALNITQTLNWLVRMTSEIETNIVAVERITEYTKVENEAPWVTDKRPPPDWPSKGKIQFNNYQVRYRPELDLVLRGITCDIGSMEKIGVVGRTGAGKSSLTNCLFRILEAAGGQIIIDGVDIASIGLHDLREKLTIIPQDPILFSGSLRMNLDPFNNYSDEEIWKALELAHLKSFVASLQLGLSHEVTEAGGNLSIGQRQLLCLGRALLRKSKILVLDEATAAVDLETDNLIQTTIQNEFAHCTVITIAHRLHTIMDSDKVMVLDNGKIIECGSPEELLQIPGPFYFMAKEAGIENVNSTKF
Description: FIGS. 5A and 5B show CLF inhibition of DNP-SG and TC transport into ABCC2 (A) and ABCB11 (B) protein containing Sf21 membrane vesicles respectively. The values are expressed as a percentage of maximal ATP-dependent transport. Significance was tested using two-sided Student's t-test: *P<0.05 for transport in the presence vs. absence of inhibitor.
The production of recombinant baculovirus was as described by de Waart et al. [Liver Int 2006 April; 26(3):362-368]. ABCC3 and ABCG2-recombinant baculovirus were a kind gift from Borst [Breedveld P. et al., Cancer Res 2004 Aug. 15; 64(16):5804-5811 and Borst P. et al., J Biol Chem 2001 Dec. 7; 276(49):46400-46407.]. ABCB11-recombinant baculovirus was a kind gift from Thompson [Thompson R J et al., Gastroenterology 2002 November; 123(5):1649-1658]. Sf21 cells grown at 27° C. were infected with ABCB11, ABCC2, ABCC3 and ABCG2-cDNA containing baculovirus. Cells were harvested at 2-4 days after infection. […]
Transport studies with membrane vesicles were performed using the rapid filtration technique as described by Heijn M et al. [Am J Physiol 1992 January; 262(1 Pt 1):C104-C110]. Radiolabel was measured with a scintillation counter. […] Samples were pipetted in 96-well plates (Kartell, Noviglio, Italy) and the amount CLF quantitated by measurement of fluorescence at λexe 485 nm and λcm 520 nm using a NovoStar (BMG-labtech, Offenburg, Germany).

In the case of `CC(CCC(=O)NC(CCCCNC(=S)Nc1ccc(-c2c3ccc(=O)cc-3oc3cc(O)ccc23)c(C(=O)O)c1)C(=O)O)C1CCC2C3C(O)CC4CC(O)CCC4(C)C3CC(O)C12C` (centres unmarked) [CLF, cholyl lysyl fluorescein], the “uptake of CLF into OATP2B1 cells” value (OATP2B1) is reported as “no uptake” and the IC50 (ABCC2) is reported as roughly 1 µM.
